Assay results from patent US10590123B2, “Pesticidally active amide heterocyclic derivatives with sulphur containing substituents” (SYNGENTA PARTICIPATIONS AG, priority 2014, dated 2020).

Legend:
Assay type in all cases: in vivo
[1] = system: Spodoptera littoralis (Egyptian Cotton Leaf Worm); experiment: Example B1: Activity against Spodoptera littoralis, sprayed cotton leaf discs; settings: foliar, 72 h, application rate 200 ppm, L1 larvae, 3 days after infestation, read-out: control in at least one of the three categories (mortality, anti-feedancy or growth inhibition)
Summary of the method: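 Cotton leaf discs on agar were sprayed with aqueous dilutions of 10′000 ppm DMSO stocks, dried, and infested with five L1 larvae. Mortality, anti-feedant effect and growth inhibition were scored 3 days after infestation against untreated discs. Control means at least one of these exceeds the untreated sample.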

[2] = system: Spodoptera littoralis (Egyptian Cotton Leaf Worm); experiment: Example B2: Activity against Spodoptera littoralis, systemic via lettuce roots in agar; settings: 144 h, application rate 12.5 ppm, 6 days after infestation, read-out: control in at least one of the three categories (mortality, anti-feedancy or growth inhibition)
Excerpt: Example B2: Activity Against Spodoptera littoralis (Egyptian Cotton Leaf Worm)
Test compounds were applied by pipette from 10′000 ppm DMSO stock solutions into 24-well plates and mixed with agar. Lettuce seeds were placed on the agar and the multi well plate was closed by another plate which contains also agar. After 7 days the roots have absorbed the compound and the lettuce has grown into the lid plate. The lettuce leafs were now cut off into the lid plate. Spodoptera eggs were pipetted through a plastic stencil on a humid gel blotting paper and the plate closed with it.
The samples were assessed for mortality, anti-feedant effect and growth inhibition in comparison to untreated samples 6 days after infestation.

[3] = system: Plutella xylostella (Diamond Back Moth); experiment: Example B3: Activity against Plutella xylostella, artificial diet; settings: 120 h, application rate 200 ppm, L2 larvae, 5 days after infestation, read-out: effect in at least one of the two categories (mortality or growth inhibition)
Procedure: Example B3: Activity Against Plutella xylostella (Diamond Back Moth)
(§1) 24-well microtiter plates with artificial diet were treated with aqueous test solutions prepared from 10′000 ppm DMSO stock solutions by pipetting. After drying, the plates were infested with L2 larvae (10 to 15 per well). The samples were assessed for mortality and growth inhibition in comparison to untreated samples 5 days after infestation.

[4] = system: Diabrotica Balteata (Corn Root Worm); experiment: Example B4: Activity against Diabrotica balteata, sprayed maize sprouts; settings: 96 h, application rate 200 ppm, L2 larvae, 4 days after infestation, read-out: effect in at least one of the two categories (mortality or growth inhibition)
Procedure: Example B4: Activity Against Diabrotica Balteata (Corn Root Worm)
as §1, with “Maize sprouts, placed on an agar layer in 24-well” for “24-well”, “plates” for “plates with artificial diet”, “spraying.” for “pipetting.”, “(6” for “(10”, “10” for “15”, “4” for “5”

[5] = system: Frankliniella occidentalis (Western Flower Thrips); experiment: Example B5: Activity against Frankliniella occidentalis, sprayed sunflower leaf discs; settings: foliar, 168 h, application rate 200 ppm, population of mixed ages, 7 days after infestation
Procedure: Example B5: Activity Against Frankliniella occidentalis (Western Flower Thrips)
(§2) Sunflower leaf discs were placed on agar in 24-well microtiter plates and sprayed with aqueous test solutions prepared from 10′000 ppm DMSO stock solutions. After drying the leaf discs were infested with a Frankliniella population of mixed ages. The samples were assessed for mortality 7 days after infestation.

[6] = system: Euschistus heros (Neotropical Brown Stink Bug); experiment: Example B7: Activity against Euschistus heros, sprayed soybean leaf; settings: 120 h, application rate 200 ppm, N-2 nymphs, 5 days after infestation
Procedure: Example B7: Activity Against Euschistus heros (Neotropical Brown Stink Bug)
Soybean leaf on agar in 24-well microtiter plates were sprayed with aqueous test solutions prepared from 10′000 ppm DMSO stock solutions. After drying the leaf were infested with N-2 nymphs. The samples were assessed for mortality 5 days after infestation.

[7] = system: Myzus persicae (Green Peach Aphid); experiment: Example B8: Activity against Myzus persicae, sprayed sunflower leaf discs; settings: foliar, 144 h, application rate 200 ppm, aphid population of mixed ages, 6 days after infestation
Procedure: Example B8: Activity Against Myzus persicae (Green Peach Aphid)
Sunflower leaf discs were placed on agar in a 24-well microtiter plate and sprayed with aqueous test solutions prepared from 10′000 ppm DMSO stock solutions. After drying, the leaf discs were infested with an aphid population of mixed ages. The samples were assessed for mortality 6 days after infestation.

[8] = system: Thrips tabaci (Onion Thrips); experiment: Example B11: Activity against Thrips tabaci, sprayed sunflower leaf discs; settings: foliar, 144 h, application rate 200 ppm, thrips population of mixed ages, 6 days after infestation
Procedure: Example B11: Activity Against Thrips tabaci (Onion Thrips)
as §2, with “thrips” for “Frankliniella”, “6” for “7”

[9] = system: Bemisia tabaci (Cotton White Fly); experiment: Example B6: Activity against Bemisia tabaci, sprayed cotton leaf discs; settings: foliar, 144 h, application rate 200 ppm, adult white flies, 6 days after incubation
Procedure: Example B6: Activity Against Bemisia tabaci (Cotton White Fly)
Cotton leaf discs were placed on agar in 24-well microtiter plates and sprayed with aqueous test solutions prepared from 10′000 ppm DMSO stock solutions. After drying the leaf discs were infested with adult white flies. The samples were checked for mortality 6 days after incubation.

[10] = system: Tetranychus urticae (Two-Spotted Spider Mite); experiment: Example B12: Activity against Tetranychus urticae, sprayed bean leaf discs; settings: foliar, 192 h, application rate 200 ppm, mixed population (mobile stages), 8 days after infestation
Procedure: Example B12: Activity Against Tetranychus urticae (Two-Spotted Spider Mite)
as §2, with “Bean” for “Sunflower”, “discs” for “discs were placed”, “were” for “and”, “mite” for “Frankliniella”, “on mixed population (mobile stages) 8” for “7”

[11] = system: Myzus persicae (Green Peach Aphid); experiment: Example B9: Activity against Myzus persicae, systemic via pea seedling roots; settings: 144 h, test rate 24 ppm, pea seedling roots in test solution, 6 days
Procedure: Example B9: Activity Against Myzus persicae (Green Peach Aphid)
Roots of pea seedlings infested with an aphid population of mixed ages were placed directly in the aqueous test solutions prepared from 10′000 DMSO stock solutions. The samples were assessed for mortality 6 days after placing seedlings in test solutions.

CCS(=O)(=O)c1cc(-c2ccccc2)cnc1C(=O)N(C)c1nnc(C(F)(F)F)s1 [Compound P5, 3-ethylsulfonyl-N-methyl-5-phenyl-N-[5-(trifluoromethyl)-1,3,4-thiadiazol-2-yl]pyridine-2-carboxamide]
≥ 80%: percent control (mortality, anti-feedant effect or growth inhibition) at 200 ppm [1] | percent control (mortality, anti-feedant effect or growth inhibition) at 12.5 ppm [2] | percent effect (mortality or growth inhibition) at 200 ppm [3] | percent effect (mortality or growth inhibition) at 200 ppm [4] | mortality at 200 ppm [5] | mortality at 200 ppm [6] | mortality at 200 ppm [7] | mortality at 200 ppm [8]

CCS(=O)(=O)c1cc(-c2ccc(Cl)cc2)cnc1C(=O)N(C)c1nnc(C(F)(F)C(F)(F)F)s1 [Compound P14]
≥ 80%: percent control (mortality, anti-feedant effect or growth inhibition) at 200 ppm [1] | percent control (mortality, anti-feedant effect or growth inhibition) at 12.5 ppm [2] | percent effect (mortality or growth inhibition) at 200 ppm [3] | percent effect (mortality or growth inhibition) at 200 ppm [4] | mortality at 200 ppm [6] | mortality at 200 ppm [7] | mortality at 200 ppm [8]

CCS(=O)(=O)c1cc(C2(C#N)CC2)cnc1C(=O)N(C)c1nnc(C(F)(F)C(F)(F)F)s1 [Compound P20, 5-(1-cyanocyclopropyl)-3-ethylsulfonyl-N-methyl-N-[5-(1,1,2,2,2-pentafluoroethyl)-1,3,4-thiadiazol-2-yl]pyridine-2-carboxamide]
≥ 80%: percent control (mortality, anti-feedant effect or growth inhibition) at 200 ppm [1] | percent control (mortality, anti-feedant effect or growth inhibition) at 12.5 ppm [2] | percent effect (mortality or growth inhibition) at 200 ppm [3] | percent effect (mortality or growth inhibition) at 200 ppm [4] | mortality at 200 ppm [5] | mortality at 200 ppm [9] | mortality at 200 ppm [6] | mortality at 200 ppm [7] | mortality at 200 ppm [8]

CCS(=O)(=O)c1cc(-c2cc(F)ccc2F)cnc1C(=O)N(C)c1nnc(C(F)(F)F)s1 [Compound P33]
≥ 80%: percent control (mortality, anti-feedant effect or growth inhibition) at 200 ppm [1] | percent control (mortality, anti-feedant effect or growth inhibition) at 12.5 ppm [2] | percent effect (mortality or growth inhibition) at 200 ppm [3] | percent effect (mortality or growth inhibition) at 200 ppm [4] | mortality at 200 ppm [9] | mortality at 200 ppm [6] | mortality at 200 ppm [7] | mortality at 200 ppm [10]

CCS(=O)(=O)c1cc(-c2ccc(Cl)c(Cl)c2)cnc1C(=O)N(C)c1nnc(C(F)(F)F)s1 [Compound P36]
≥ 80%: percent control (mortality, anti-feedant effect or growth inhibition) at 200 ppm [1] | percent effect (mortality or growth inhibition) at 200 ppm [3] | percent effect (mortality or growth inhibition) at 200 ppm [4] | mortality at 200 ppm [6] | mortality at 200 ppm [10]

CCS(=O)(=O)c1cc(-c2cccc(Cl)n2)cnc1C(=O)N(C)c1nnc(C(F)(F)F)s1 [Compound P49]
≥ 80%: percent control (mortality, anti-feedant effect or growth inhibition) at 200 ppm [1] | percent effect (mortality or growth inhibition) at 200 ppm [3] | percent effect (mortality or growth inhibition) at 200 ppm [4] | mortality at 200 ppm [6] | mortality at 200 ppm [10]

CCS(=O)(=O)c1cc(-c2cncnc2)cnc1C(=O)N(C)c1nnc(C(F)(F)F)s1 [Compound P58]
≥ 80%: percent effect (mortality or growth inhibition) at 200 ppm [3] | mortality at 200 ppm [7] | mortality at 24 ppm [11]

CCS(=O)(=O)c1cc(-c2cc(C#N)ccn2)cnc1C(=O)N(C)c1nnc(C(F)(F)F)s1 [Compound P61]
≥ 80%: percent control (mortality, anti-feedant effect or growth inhibition) at 200 ppm [1] | percent control (mortality, anti-feedant effect or growth inhibition) at 12.5 ppm [2] | percent effect (mortality or growth inhibition) at 200 ppm [3] | percent effect (mortality or growth inhibition) at 200 ppm [4] | mortality at 200 ppm [9] | mortality at 200 ppm [6] | mortality at 200 ppm [7] | mortality at 200 ppm [10]

CCS(=O)(=O)c1cc(-c2cc(C(F)(F)F)ccn2)cnc1C(=O)N(C)c1nnc(C(F)(F)F)s1 [Compound P65]
≥ 80%: percent control (mortality, anti-feedant effect or growth inhibition) at 200 ppm [1] | percent effect (mortality or growth inhibition) at 200 ppm [3] | percent effect (mortality or growth inhibition) at 200 ppm [4] | mortality at 200 ppm [6] | mortality at 200 ppm [7] | mortality at 200 ppm [8]
